Data on 5 compounds can be found in patent publication US11274083B2, “Substituted thiophenyl uracils, salts thereof and the use thereof as herbicidal agents” (Syngenta Crop Protection AG, priority 2017, dated 2022).

Assay type in all cases: in vivo
In series [1] the test system is Triticum aestivum. In words: Crop compatibility post-emergence, greenhouse pot test. The method, then:
(§1) Seeds of mono- and dicotyledonous weed plants and crop plants were laid out in sandy loam soil in plastic or wood-fiber pots, covered with soil and grown under controlled growth conditions in a greenhouse. 2 to 3 weeks after sowing, the trial plants were treated at the one-leaf stage. The compounds of the invention formulated in the form of wettable powders (WP) or as emulsion concentrates (EC) were then sprayed onto the green parts of the plant as an aqueous suspension or emulsion with addition of 0.5% additive at a water application rate equivalent to 600 L/ha. After the trial plants had stood for about 3 weeks in the greenhouse, under optimal growth conditions, the effect of the preparations was scored visually by comparison with untreated controls. For example, 100% efficacy=plants have died, 0% efficacy=like control plants.
(§2) Crop plant compatibilities were also scored correspondingly.
(§3) The effects observed are reported here on selected crop plants by comparison, with the untreated controls (values in %).

In series [2] the test system is Abutilon theophrasti. Put plainly: Herbicidal action post-emergence, greenhouse pot test. The following applies: application rate 20 g/ha. The method, then:
as §1, with “plants. Tables A1 to A16 below show the efficacies of selected compounds of the general formula (I) according to tables I.1 to I.50 on various harmful plants and an application rate corresponding to 80 g/ha or lower that were obtained by the aforementioned trial method.” for “plants.”

Series [3] relates to Pharbitis purpurea. The series is described as above. To be noted: application rate 20 g/ha. The method, then:
as §1, with “plants. Tables A1 to A16 below show the efficacies of selected compounds of the general formula (I) according to tables I.1 to I.50 on various harmful plants and an application rate corresponding to 80 g/ha or lower that were obtained by the aforementioned trial method.” for “plants.”

Series [4] deals with Echinochloa crus-galli. The description is as above. The following applies: application rate 20 g/ha. As for the experimental part: as §1, with “plants. Tables A1 to A16 below show the efficacies of selected compounds of the general formula (I) according to tables I.1 to I.50 on various harmful plants and an application rate corresponding to 80 g/ha or lower that were obtained by the aforementioned trial method.” for “plants.”

Series [5] has as its system Polygonum convolvulus. The description is as above. To be noted: application rate 20 g/ha. The method, then:
as §1, with “plants. Tables A1 to A16 below show the efficacies of selected compounds of the general formula (I) according to tables I.1 to I.50 on various harmful plants and an application rate corresponding to 80 g/ha or lower that were obtained by the aforementioned trial method.” for “plants.”

Series [6] has as its system Setaria viridis. Described as above. The following applies: application rate 20 g/ha. As for the experimental part:
as §1, with “plants. Tables A1 to A16 below show the efficacies of selected compounds of the general formula (I) according to tables I.1 to I.50 on various harmful plants and an application rate corresponding to 80 g/ha or lower that were obtained by the aforementioned trial method.” for “plants.”

Series [7] has as its system Alopecurus myosuroides. The description is as above. To be noted: application rate 20 g/ha, scored visually after about 3 weeks vs untreated controls. As for the experimental part:
as §1, with “plants. Tables A1 to A16 below show the efficacies of selected compounds of the general formula (I) according to tables I.1 to I.50 on various harmful plants and an application rate corresponding to 80 g/ha or lower that were obtained by the aforementioned trial method.” for “plants.”

For series [8], the system named is Amaranthus retroflexus. The description is as above. The following applies: application rate 20 g/ha. The method, then: as §1, with “plants. Tables A1 to A16 below show the efficacies of selected compounds of the general formula (I) according to tables I.1 to I.50 on various harmful plants and an application rate corresponding to 80 g/ha or lower that were obtained by the aforementioned trial method.” for “plants.”

In series [9] the test system is Stellaria media. The description is as above. To be noted: application rate 20 g/ha. As for the experimental part:
as §1, with “plants. Tables A1 to A16 below show the efficacies of selected compounds of the general formula (I) according to tables I.1 to I.50 on various harmful plants and an application rate corresponding to 80 g/ha or lower that were obtained by the aforementioned trial method.” for “plants.”

The test system of series [10] is Veronica persica. The description is as above. The following applies: application rate 20 g/ha. As for the experimental part: as §1, with “plants. Tables A1 to A16 below show the efficacies of selected compounds of the general formula (I) according to tables I.1 to I.50 on various harmful plants and an application rate corresponding to 80 g/ha or lower that were obtained by the aforementioned trial method.” for “plants.”

Series [11] relates to Matricaria inodora. Described as above. The following applies: application rate 20 g/ha. The method, then: as §1, with “plants. Tables A1 to A16 below show the efficacies of selected compounds of the general formula (I) according to tables I.1 to I.50 on various harmful plants and an application rate corresponding to 80 g/ha or lower that were obtained by the aforementioned trial method.” for “plants.”

For series [12], the system named is Viola tricolor. The description is as above. The following applies: application rate 20 g/ha. The method, then: as §1, with “plants. Tables A1 to A16 below show the efficacies of selected compounds of the general formula (I) according to tables I.1 to I.50 on various harmful plants and an application rate corresponding to 80 g/ha or lower that were obtained by the aforementioned trial method.” for “plants.”

Series [13] relates to Digitaria sanguinalis. The series is described as above. To be noted: application rate 20 g/ha.
Series [14] deals with Oryza sativa. In words: Crop compatibility post-emergence, greenhouse pot test. The following applies: application rate 20 g/ha. As for the experimental part: as §1, §2, §3
Series [15] deals with Zea mays. The description is as above. The following applies: application rate 20 g/ha. As for the experimental part:
as §1, §2, §3

For series [16], the system named is Lolium rigidum. In words: Herbicidal action pre-emergence, greenhouse pot test. To be noted: application rate 320 g/ha. The text has this:
Seeds of mono- and dicotyledonous weeds and crop plants were laid out in plastic or organic plant pots and covered with soil. The compounds of the invention formulated in the form of wettable powders (WP) or as emulsion concentrates (EC) were then applied to the surface of the covering soil as an aqueous suspension or emulsion with addition of 0.5% additive at a water application rate equivalent to 600 L/ha. After the treatment, the pots were placed in a greenhouse and kept under good growth conditions for the test plants. After about 3 weeks, the efficacy of the preparations was scored visually as a percentage by comparison with untreated controls. For example, 100% efficacy=plants have died. 0% efficacy=like control plants. Tables B1 to B17 below show the efficacies of selected compounds of the general formula (I) according to tables I.1 to I.50 on various harmful plants and an application rate corresponding to 320 g/ha or lower that were obtained by the aforementioned trial method.

Turning to `CCOC(=O)CCOC(=O)C(Sc1cc(-n2c(=O)cc(C(F)(F)F)n(C)c2=O)c(F)cc1Cl)C(C)CC` (stereo not shown) [I.5-3], in [1] (application rate 5 g/ha), the “Triticum aestivum (Efficacy in %)” value worked out at 20%. In [2], the “Abutilon theophrasti (Efficacy in %)” value is 100%. Besides, the “Pharbitis purpurea (Efficacy in %)” value in series [3] is 100%. Also, the “Echinochloa crus-galli (Efficacy in %)” value in series [4] turned out to be 100%. Besides, the “Polygonum convolvulus (Efficacy in %)” value in [5] is listed as 100%. Besides, in series [6], the “Setaria viridis (Efficacy in %)” value was 100%. In series [7], the “Alopecurus myosuroides (Efficacy in %)” value is 80%. For the same compound, in series [8], the “Amaranthus retroflexus (Efficacy in %)” value is recorded as 100%. Further, the “Stellaria media (Efficacy in %)” value in series [9] is 100%. Besides, the “Veronica persica (Efficacy in %)” value in series [10] is on record as 100%. Also, the “Matricaria inodora (Efficacy in %)” value in series [11] was 100%. Also, the “Viola tricolor (Efficacy in %)” value in series [12] is on record as 100%. Besides, the “Digitaria sanguinalis (Efficacy in %)” value in series [13] is 80%.

For `CCC(C)C(Sc1cc(-n2c(=O)cc(C(F)(F)F)n(C)c2=O)c(F)cc1Cl)C(=O)OCCC(=O)OC` (stereo not shown) [I.5-2], the “Triticum aestivum (Efficacy in %)” value in series [1] (application rate 5 g/ha) turned out to be 20%. In addition, the “Abutilon theophrasti (Efficacy in %)” value in [2] was 100%. The “Pharbitis purpurea (Efficacy in %)” value in series [3] was 100%. In addition, the “Echinochloa crus-galli (Efficacy in %)” value in [4] is 100%. Further, the “Polygonum convolvulus (Efficacy in %)” value in series [5] stood at 100%. In addition, the “Setaria viridis (Efficacy in %)” value in series [6] is 100%. Also, the “Alopecurus myosuroides (Efficacy in %)” value in series [7] stood at 80%. For the same compound, the “Amaranthus retroflexus (Efficacy in %)” value in series [8] stood at 100%. Further, the “Stellaria media (Efficacy in %)” value in [9] is recorded as 100%. Also, the “Veronica persica (Efficacy in %)” value in [10] was determined as 100%. The “Matricaria inodora (Efficacy in %)” value in [11] stood at 100%. Further, the “Viola tricolor (Efficacy in %)” value in [12] is 100%. The “Digitaria sanguinalis (Efficacy in %)” value in [13] is given as 80%.

In the case of `CCCCOC(=O)COC(=O)CSc1cc(-n2c(=O)cc(C(F)(F)F)n(C)c2=O)c(F)cc1Cl` [I.8-51], the “Triticum aestivum (Efficacy in %)” value in [1] (application rate 20 g/ha) was 20%. Besides, the “Oryza sativa (Efficacy in %)” value in [14] is listed as 0%. The “Abutilon theophrasti (Efficacy in %)” value in [2] was found to be 100%. Further, in series [3], the “Pharbitis purpurea (Efficacy in %)” value stood at 100%. In addition, the “Echinochloa crus-galli (Efficacy in %)” value in series [4] was 90%. Besides, in [5], the “Polygonum convolvulus (Efficacy in %)” value turned out to be 100%. Moreover, the “Setaria viridis (Efficacy in %)” value in [6] stood at 100%. The “Amaranthus retroflexus (Efficacy in %)” value in [8] is given as 100%. In addition, the “Veronica persica (Efficacy in %)” value in series [10] amounted to 100%. Moreover, the “Matricaria inodora (Efficacy in %)” value in series [11] is 100%. Further, in [12], the “Viola tricolor (Efficacy in %)” value is on record as 100%. Moreover, the “Digitaria sanguinalis (Efficacy in %)” value in [13] is 100%.

As to `CC(Sc1cc(-n2c(=O)cc(C(F)(F)F)n(C)c2=O)c(F)cc1Cl)C(=O)OCCC(=O)OCc1ccccc1` (stereo not shown) [I.1-6], the “Triticum aestivum (Efficacy in %)” value in series [1] (application rate 20 g/ha) was found to be 0%. Besides, in [14], the “Oryza sativa (Efficacy in %)” value worked out at 0%. In addition, in [15], the “Zea mays (Efficacy in %)” value stood at 10%. Moreover, the “Abutilon theophrasti (Efficacy in %)” value in series [2] is 100%. In series [8], the “Amaranthus retroflexus (Efficacy in %)” value is 100%. Moreover, the “Veronica persica (Efficacy in %)” value in series [10] is 100%. In addition, the “Viola tricolor (Efficacy in %)” value in [12] turned out to be 100%.

In the case of `CC(Sc1cc(-n2c(=O)cc(C(F)(F)F)n(C)c2=O)c(F)cc1Cl)C(=O)OCCC(=O)OCC1CC1` (stereo not shown) [I.1-7], the “Lolium rigidum (Efficacy in %)” value in series [16] came to 90%.
